The source of these data is patent publication US20070258921A1, “PROCESS FOR DEPIGMENTING THE SKIN” (L'OREAL, priority 2006, published 2007).

Series [1] has as its system cocultures of keratinocytes and of melanocytes. The experiment in a line: Inhibition of melanin synthesis (ratio of thiouracil to leucine incorporation) in keratinocyte/melanocyte cocultures. The format is cell-based. The method, then: (§1) The modulating effect with regard to melanogenesis of the compounds tested was measured according to the method described in Patent FR-A-2 734 825 and in the paper by R. Schmidt, P. Krien and M. Régnier, Anal. Biochem., 235(2), 113-18, 1996. This test is carried out on cocultures of keratinocytes and of melanocytes.
(§2) For the compound tested, the following were determined:
the inhibitory activity with regard to the synthesis of melanin, by estimating the ratio of the incorporation of thiouracil to the incorporation of leucine, with respect to 100% of the control (the control corresponds to the test carried out without compound to be tested). The IC50 (concentration at which the synthesis of melanin is inhibited by 50%) values were determined.

Series [2] shares this test system. The experiment in a line: Cytotoxicity by estimating the incorporation of leucine in keratinocyte/melanocyte cocultures. Type of series: cell-based. The method, then: as §1, §2
the cytotoxicity, by estimating the incorporation of leucine, […]

On to `Nc1ncnc2c1ncn2[C@@H]1O[C@H](CO)[C@@H](O)[C@H]1O` [adenosine, reference compound], for which the inhibition at 100 µM in series [1] (at the concentration of 100 μM, read-out: melanin synthesis inhibited) was 20%.

In the case of `CC(=O)OC[C@H]1O[C@@H](n2cnc3c(N)ncnc32)[C@@H]2OC(C)(C)O[C@@H]21` [Compound H, 2′,3′-isopropylidene-5′-acetyladenosine], in series [1] (ratio of thiouracil to leucine incorporation, with respect to 100% of the control, read-out: IC50 (concentration at which the synthesis of melanin is inhibited by 50%)), the IC50 was 35 µM. Moreover, the Cytotoxicity entry in series [2] is “No”.
